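Dose response: 5 concentrations. Exposure: 48 h. Format: 96-well plates. Endpoint: linear interpolation; highest concentration if not reached. GI50 = concentration required for 50% inhibition of growth. TGI: concentration producing complete growth inhibition.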
How the values were obtained:
Test in all cases: NCI tumour cell line growth inhibition, 48 h
COLO 205 colon = tested on: COLO 205 colon
ACHN renal = tested on: ACHN renal
HT29 colon = tested on: HT29 colon
SW-620 colon = tested on: SW-620 colon
OVCAR-3 ovarian = tested on: OVCAR-3 ovarian
TK-10 renal = tested on: TK-10 renal
SK-MEL-2 melanoma = tested on: SK-MEL-2 melanoma
OVCAR-5 ovarian = tested on: OVCAR-5 ovarian
SR leukemia = tested on: SR leukemia
DU-145 prostate = tested on: DU-145 prostate

Row | Compound | TGI (COLO 205 colon) | TGI (ACHN renal) | TGI (HT29 colon) | TGI (SW-620 colon) | TGI (OVCAR-3 ovarian) | TGI (TK-10 renal) | TGI (SK-MEL-2 melanoma) | TGI (OVCAR-5 ovarian) | TGI (SR leukemia) | GI50 (COLO 205 colon) | GI50 (SK-MEL-2 melanoma) | GI50 (OVCAR-5 ovarian) | GI50 (ACHN renal) | GI50 (HT29 colon) | GI50 (SW-620 colon) | GI50 (OVCAR-3 ovarian) | GI50 (DU-145 prostate) | TGI (DU-145 prostate) | GI50 (TK-10 renal)
1 | CC(=O)Oc1cc(OC(C)=O)c(OC(C)=O)c2c1CC1C(=O)C3(CCc4ccccc43)C(=O)C1C2 (centres undefined) | 37.9 µM | 26.2 µM | 40.9 µM | 42.7 µM | 16.6 µM | 31.7 µM | – | – | – | – | – | – | – | – | – | – | – | – | –
2 | NCCCSCC(=O)O | > 100 µM | > 100 µM | > 100 µM | > 100 µM | > 100 µM | > 100 µM | > 100 µM | > 100 µM | – | – | – | – | – | – | – | – | – | – | –
3 | CC(=O)NC1C(OCc2ccccc2)OC(COC(=O)CCCCCCCCCCNC(=O)CCNc2ccc([N+](=O)[O-])c3[nH]c4ccc(O)cc4c(=O)c23)C(O)C1OC(C)C(=O)N[C@H](C(=O)N[C@H](CCC(=O)O)C(N)=O)C(C)C (some centres undefined) | > 100 µM | > 100 µM | > 100 µM | – | > 100 µM | > 100 µM | > 100 µM | > 100 µM | 45.4 µM | – | – | – | – | – | – | – | – | – | –
4 | CCn1cc(C(=O)O)c(=O)c2cc(F)c(N3CCNCC3)nc21 | > 100 µM | > 100 µM | > 100 µM | > 100 µM | > 100 µM | > 100 µM | > 100 µM | > 100 µM | > 100 µM | – | – | – | – | – | – | – | – | – | –
5 | O=C(c1ccccc1)C(c1ccccc1)C1(O)C(=O)Nc2ccc(Br)cc21 (centres undefined) | > 100 µM | > 100 µM | > 100 µM | > 100 µM | > 100 µM | > 100 µM | > 100 µM | > 100 µM | > 100 µM | – | – | – | – | – | – | – | – | – | –
6 | CCCCCCCCCCCC(=O)[O][Sn]([CH2]CCC)([CH2]CCC)[CH2]CCC | 0.122 µM | 0.157 µM | 0.11 µM | 0.138 µM | 0.125 µM | 0.0677 µM | 0.13 µM | 0.164 µM | – | 0.0509 µM | 0.0555 µM | 0.0548 µM | 0.0596 µM | 0.0355 µM | 0.0419 µM | 0.0518 µM | 0.0544 µM | 0.17 µM | 0.0271 µM
7 | COc1ccc2c(C(=O)NCCCCCC(=O)O)cc3cc4c(cc3c2c1)OCO4 | > 100 µM | > 100 µM | > 100 µM | > 100 µM | > 100 µM | > 100 µM | – | > 100 µM | – | > 100 µM | – | > 100 µM | > 100 µM | > 100 µM | > 100 µM | > 100 µM | > 100 µM | > 100 µM | > 100 µM
8 | Cc1ccc(Sc2cc([N+](=O)[O-])cc(Sc3ccc(C)cc3)c2Sc2ccc(C)cc2)cc1 | > 100 µM | > 100 µM | > 100 µM | > 100 µM | > 100 µM | > 100 µM | > 100 µM | > 100 µM | – | – | – | – | – | – | – | – | – | – | –
9 | O=C1CCC(=O)C12CCc1ccccc12 | > 100 µM | > 100 µM | > 100 µM | > 100 µM | > 100 µM | > 100 µM | – | – | – | – | – | – | – | – | – | – | – | – | –
10 | OC1OC2COC(c3ccccc3)OC2C(O)C1O (centres undefined) | > 100 µM | > 100 µM | > 100 µM | > 100 µM | > 100 µM | > 100 µM | > 100 µM | > 100 µM | – | – | – | – | – | – | – | – | – | – | –
11 | O=C1C2Cc3ccccc3CN2C(=O)N1CCN1CCOCC1 (centres undefined) | > 100 µM | > 100 µM | – | > 100 µM | > 100 µM | > 100 µM | > 100 µM | > 100 µM | > 100 µM | – | – | – | – | – | – | – | – | – | –

Reference: PubChem BioAssay (NCI)
